One assay has as its target T1, mitochondrial complex II (Homo sapiens, UniProt O14521+P21912+Q99643).
T1 construct: gene SDHB; native complex in permeabilized H2030BrM3 cells
As to the kind of experiment: oxygen consumption rate, Seahorse XF96, permeabilized cells. It is filed as cell-based.

For the next assay, the target named is T2, mitochondrial complex I (Homo sapiens, UniProt O75251+O75306+P03886).
T2 construct: gene MT-ND1; native complex in permeabilized H2030BrM3 cells
The assay is described as above. The class given is cell-based.

T1 sequence (P21912 29-280): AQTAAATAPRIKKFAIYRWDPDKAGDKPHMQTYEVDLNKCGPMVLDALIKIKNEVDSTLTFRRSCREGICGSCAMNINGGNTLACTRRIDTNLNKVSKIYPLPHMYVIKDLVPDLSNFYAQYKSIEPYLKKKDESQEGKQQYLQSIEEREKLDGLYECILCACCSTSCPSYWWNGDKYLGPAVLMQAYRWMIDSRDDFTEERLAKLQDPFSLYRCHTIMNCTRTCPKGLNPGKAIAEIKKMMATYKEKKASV
T1 sequence (Q99643 30-169): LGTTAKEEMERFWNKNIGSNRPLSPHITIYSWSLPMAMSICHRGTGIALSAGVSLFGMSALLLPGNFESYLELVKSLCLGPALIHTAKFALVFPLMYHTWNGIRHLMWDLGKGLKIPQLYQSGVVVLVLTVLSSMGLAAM
T1 sequence (O14521 57-159): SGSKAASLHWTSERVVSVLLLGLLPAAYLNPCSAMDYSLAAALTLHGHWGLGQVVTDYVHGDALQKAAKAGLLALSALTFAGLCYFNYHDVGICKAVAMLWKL
T1 sequence (P31040 43-664 partner): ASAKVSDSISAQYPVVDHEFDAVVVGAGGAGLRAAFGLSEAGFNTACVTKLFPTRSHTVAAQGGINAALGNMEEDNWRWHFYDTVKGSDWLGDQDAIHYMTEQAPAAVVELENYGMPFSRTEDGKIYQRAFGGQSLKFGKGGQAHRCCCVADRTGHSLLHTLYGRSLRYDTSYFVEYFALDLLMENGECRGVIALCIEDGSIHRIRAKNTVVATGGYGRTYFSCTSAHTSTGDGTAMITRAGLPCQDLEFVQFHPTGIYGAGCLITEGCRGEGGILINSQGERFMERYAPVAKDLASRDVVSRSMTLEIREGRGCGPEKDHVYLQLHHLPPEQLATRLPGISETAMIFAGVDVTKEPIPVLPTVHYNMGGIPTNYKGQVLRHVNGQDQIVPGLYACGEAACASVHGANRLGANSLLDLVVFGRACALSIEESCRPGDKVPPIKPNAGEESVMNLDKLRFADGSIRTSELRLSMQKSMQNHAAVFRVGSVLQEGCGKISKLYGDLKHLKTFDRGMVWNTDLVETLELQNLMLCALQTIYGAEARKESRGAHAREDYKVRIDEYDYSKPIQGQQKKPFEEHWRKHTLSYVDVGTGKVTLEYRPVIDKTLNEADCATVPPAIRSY

For `O=C(O)c1nn(Cc2ccc(Cl)cc2Cl)c2ccccc12` [LND], the IC50 is 390 µM against mitochondrial complex II and 444 µM against mitochondrial complex I.

Turning to `O=C(NCCCCCCCCCC[P+](c1ccccc1)(c1ccccc1)c1ccccc1)c1nn(Cc2ccc(Cl)cc2Cl)c2ccccc12` [Mito-LND], the IC50 at mitochondrial complex II amounted to 2.4 µM; at mitochondrial complex I, 1.2 µM.

Values taken from publication PMC6525201, “Targeting lonidamine to mitochondria mitigates lung tumorigenesis and brain metastasis” (Nature Communications, 2019).
